Results on three compounds are retold here after patent publication US6664284B2, “Stabilized carvedilol injection solution” (Roche Diagnostics GmbH, priority 1998, dated 2003).

≈ marks a conversion by molar mass, not a printed value.

The nature of data set [1]: Solubility of loop diuretics in the acidic to maximum neutral aqueous formulations. The conditions noted are these: acidic to neutral aqueous carvedilol injection solutions, aqueous with cosolvent or surfactant or cyclodextrin.
A short description of data set [2]: physchem. The following applies: aqueous with cosolvent or surfactant or cyclodextrin.
Data set [3] can be described thus: physchem. The conditions noted are these: pH 6.1, water.
The subject of a further data set is lipid peroxidation. The following applies: reported by Yue et al.; cited from earlier work.

A word on the solubility: it is the concentration that dissolves in the medium under given conditions. A low value points to little dissolved substance.

Regarding `NS(=O)(=O)c1cc(-c2nnn[nH]2)c(NCc2cccs2)cc1Cl` [azosemide], in data set [1], the solubility was in the range of 1000 to 3000 µg/mL (≈ 2700 to 8090 µM).
For `Cc1cccc(Nc2ccncc2S(=O)(=O)NC(=O)NC(C)C)c1` [Torasemide], the solubility in the data set “physchem [2]” lay in the range of 1000 to 2000 µg/mL (≈ 2870 to 5740 µM).
`COc1ccccc1OCCNCC(O)COc1cccc2[nH]c3ccccc3c12` (stereo not drawn) [carvedilol, 1-(9H-carbazol-4-yloxy)-3-[[2-(2-methoxyphenoxy)ethyl]amino]-2-propanol] yielded a solubility in “physchem [3]” of approximately 2 µg/mL (≈ 4.92 µM). In the data set on lipid peroxidation, the “antioxidative activity, lipid peroxidation” value is listed as “inhibit lipid peroxidation”. The “solubility of carvedilol in water” value (pH 6.1) is “about 0.2 mg/100 ml”. Moreover, under “water”, the “pH value resulting from saturated solution in water” value came out at 6.1.
